Earlier results on two molecules are cited in article PMC4452912 (Viruses, 2015).

Some results are limits rather than exact numbers.

One series has as its system DENV, HCV, and HIV. Also on record: method as in ref 3 = [3]. As to conditions: cited from earlier work.
The conditions of series [1]: mouse, in vivo; cited from earlier work.
Another series deals with DENV-2. Also on record: method as in ref 16 = [16]. Particulars: DENV-2 ADE mouse model; cited from earlier work.

With `CCCCN1C[C@H](O)[C@@H](O)[C@H](O)[C@H]1CO` [NB-DNJ, N-butyl-deoxynojirimycin], the “concentrations required for broad-spectrum antiviral activity in vitro” value in the series with DENV, HCV, and HIV is above 30 µM. Besides, the thymus effect result in series [1] is “thymus weight loss”.

`COCCCCCCCCCN1C[C@H](O)[C@@H](O)[C@H](O)[C@H]1CO` [UV-4]: the “dose range promoting survival” value in the series with DENV-2 is 10 to 20 mg/kg.
